Patent publication US8536160B2, “Azaheterocyclyl derivatives of androstanes and androstenes as medicaments for cardiovascular disorders” (priority 2006, dated 2013)
Structures can show the parent of a compound that is named as a salt. Where two headings read alike, the source gives them in different places.

What was measured:
[1] = target: Dog Kidney Na+, K+-ATPase (Canis lupus familiaris, UniProt P50997); experiment: Inhibition of the enzymatic activity of purified Na+,K+-ATPase (hydrolysis of 32P-ATP); assay type: biochemical
anesthetized guinea-pig = experiment: Inotropic effect and lethal dose, slow intravenous infusion in anesthetized guinea-pig; assay type: in vivo; set-up: Maximum dose infused: unit not given here; settings: for Emax / ED80 / ED (max): Cavia porcellus, iv, 1.5 h; for Emax: maximum increase in contractile force, read-out: Emax % increase in +dP/dTmax; for ED80: read-out: ED80 (inotropic potency, dose increasing +dP/dTmax by 80%); for ED (max): read-out: EDmax (dose inducing maximum positive inotropic effect); for % decrease from Emax after 20 min from the end of the infusion: duration of the inotropic effect; for Maximum dose infused: maximum dose infused in the survived animals
[2] = read-out: Na+, K+-ATPase Inhibition IC50
[3] = dog kidney enzyme, hydrolysis of 32P-ATP in presence and absence of compound, read-out: Na+, K+-ATPase Inhibition IC50
[4] = slow i.v. infusion over 90 minutes, anesthetized guinea-pig
[5] = slow i.v. infusion over 90 minutes

Molecule | IC50 ([1]; Na+, K+-ATPase Inhibition IC50) [µM] | IC50 [1, 3] [µM] | further results
3α-[2-(Azetidin-3-yl)-(Z)-vinyl]androstane-6,7-dione formate [I-dh] | – | – | IC50 [1, 2]: 0.83 µM
3α-[2-(Pyrrolidin-3-(R)-yl)-(Z)-vinyl]androstane-6,7-dione formate [I-df] | – | – | IC50 [1, 2]: 0.36 µM
3β-(2(R,S)-Morpholinylcarbonyloxy)androstane-6,7-dione fumarate [I-cz] | – | – | IC50 [1, 2]: 12 µM
3β-(2-(R,S)-piperazinylcarbonyloxy)androstane-6,7-dione dihydrochloride [I-da] | – | – | IC50 [1, 2]: 68 µM
3β-(3-(R,S)-Piperidinylcarbonyloxy)androstane-6,7-dione hydrochloride [I-cv] | – | – | IC50 [1, 2]: 92 µM
CC12CCC3C(CC(=O)C4CC(=NOC5CNC5)CCC43C)C1CCC2=O (mixture of isomers) [I-ab] | 0.26 | – | –
C[C@]12CC/C(=N\OC3CCNC3)CC1C(=O)C[C@@H]1[C@@H]2CC[C@]2(C)C(=O)CC[C@@H]12 (mixture of isomers) [I-ac, (E) 3-[3-(RS)-Pyrrolidinyl]oxyiminoandrostane-6,17-dione hydrochloride] | 0.11 | – | –
CC12CCC3C(CC(=O)C4CC(=NOCC5CCCN5)CCC43C)C1CCC2=O (mixture of isomers) [I-ah, hydrochloride] | 23 | – | –
CC12CCC3C(CC(=O)C4CC(=NOCC5CCCN5)CCC43C)C1CCC2=O (mixture of isomers) [I-ai, hydrochloride] | 11 | – | –
CC12CCC3C(CC(=O)C4CC(=NOC5CCCNC5)CCC43C)C1CCC2=O (mixture of isomers) [I-aj, (E) 3-[3′-(R,S)-Piperidinyl]oxyiminoandrostane-6,7-dione hydrochloride] | 33 | – | –
CC12CCC3C(CC(O[N+](=O)[O-])C4CC(=NOC5CCNC5)CCC43C)C1CCC2=O (mixture of isomers) [I-ap, (E,Z) 3-[3-(R)-Pyrrolidinyl]oxyimino-17-oxoandrostane-6α-yl nitrate hydrochloride] | – | 0.38 | –
C=C1CC2C3CCC(=O)C3(C)CCC2C2(C)CCC(=NOC3CCNC3)CC12 (mixture of isomers) [I-aq, (E,Z) 3-[3-(R)-Pyrrolidinyl]oxyimino-6-methyleneandrostane-17-one hydrochloride] | 0.046 | – | –
CC12CCC3C(CC(CO)C4CC(=NOC5CCNC5)CCC43C)C1CCC2=O (mixture of isomers) [I-ar, (E,Z) 3-[3-(R)-Pyrrolidinyl]oxyimino-6α-hydroxymethylandrostan-17-one hydrochloride] | – | 0.026 | –
COCC1CC2C3CCC(=O)C3(C)CCC2C2(C)CCC(=NOC3CCNC3)CC12 (mixture of isomers) [I-as, (E,Z) 3-[3-(R)-Pyrrolidinyl]oxyimino-6α-methoxymethylandrostane-17-one hydrochloride] | – | 0.32 | –
CC12CCC3C(CC(=NO)C4CC(=NOC5CCNC5)CCC43C)C1CCC2=O (mixture of isomers) [I-av, (E,Z) 3-[3-(R)-Pyrrolidinyl]oxyimino-6(E)-hydroxyiminoandrostan-17-one hydrochloride] | – | – | Emax (anesthetized guinea-pig; [4]): 144%; ED80 (anesthetized guinea-pig; [4]): 1.49 µmol/kg; ED (max) (anesthetized guinea-pig; [4]): 4.3 µmol/kg; % decrease from Emax after 20 min from the end of the infusion (anesthetized guinea-pig; anesthetized guinea-pig): 100%; Dead/treated (anesthetized guinea-pig; [4]): 0/3; Maximum dose infused (anesthetized guinea-pig; [5]): 6.3
CC12CCC3C(CC(NC=O)C4CC(=NOC5CCNC5)CCC43C)C1CCC2=O (mixture of isomers) [I-ay, (E,Z) 3-[3-(R)-Pyrrolidinyl]oxyimino-6α-formamidoandrostane-17-one hydrochloride] | – | 0.041 | –
CC12CCC3C(CC4(CC4)C4CC(=NOC5CCNC5)CCC34C)C1CCC2=O (mixture of isomers) [I-ba, (Z,E) 3-(3-(R)-Pyrrolidinyloxyimino)-6-(spirocyclopropane)androstane-17-one hydrochloride] | – | 0.22 | –
CON=C1CC2C3CCC(=O)C3(C)CCC2C2(C)CCC(=NOC3CCN(C)C3)CC12 (mixture of isomers) [I-bf, (E,Z) 3-[3′-(S)-(1-Methyl)pyrrolidinyl]oxyimino-6-(E)-methoxyimino-androstane-17-one hydrochloride] | – | 7.6 | –
CON=C1CC2C3CCC(=O)C3(C)CCC2C2(C)CCC(=NOC3CCN(C)C3)CC12 (mixture of isomers) [I-bg, (E,Z) 3-[3′-(R)-(1-Methyl)pyrrolidinyl]oxyimino-(E)-6-methoxyiminoandrostane-17-one hydrochloride] | – | 5.7 | –
C[C@]12CC[C@H]3[C@@H](C/C(=N\O)[C@@]4(O)CC(=NO[C@H]5CCNC5)CC[C@]34C)[C@@H]1CCC2=O (mixture of isomers) [I-bq, (E,Z) 3-[3-(S)-Pyrrolidinyl]oxyimino-5α-hydroxy-6-(E)-hydroxyiminoandrostane-17-one hydrochloride] | – | – | Emax (anesthetized guinea-pig; [4]): 380%; ED80 (anesthetized guinea-pig; [4]): 0.59 µmol/kg; ED (max) (anesthetized guinea-pig; [4]): 3.72 µmol/kg; Maximum dose infused (anesthetized guinea-pig; [5]): 18.7

Molecule | IC50 ([1]; Na+, K+-ATPase Inhibition IC50) [µM] | IC50 [1, 3] [µM] | further results
CON=C1CC2CC(=NOC3CCNC3)CCC2(C)C2CCC3(C)C(=O)CCC3C12 (mixture of isomers) [I-ce, (E,Z) 3-[3-(R)-Pyrrolidinyl]oxyimino-7(E)-methoxyiminoandrostan-17-one fumarate] | – | 3 | –
C=CCON=C1CC2CC(=NOC3CCNC3)CCC2(C)C2CCC3(C)C(=O)CCC3C12 (mixture of isomers) [I-cf, (E,Z) 3-[3′-(R)-Pyrrolidinyl]oxyimino-7-(E)-allyloxyiminoandrostane-17-one fumarate] | – | 4 | –
CC12CCC3C(C(CO)CC4CC(=NOC5CCNC5)CCC43C)C1CCC2=O (mixture of isomers) [I-ch, (E,Z) 3-[3′-(R)-Pyrrolidinyl]oxyimino-7α-hydroxymethylandrostane-17-one hydrochloride] | – | 0.16 | –
CC12CCC3C(C(CO)CC4CC(=NOC5CCNC5)CCC43C)C1CCC2=O (mixture of isomers) [I-ci, (E,Z) 3-[3′-(R)-Pyrrolidinyl]oxyimino-7β-hydroxymethylandrostane-17-one hydrochloride] | – | 0.33 | –
CC12CCC3C(C1CCC2=O)C1(CC1)CC1CC(=NOC2CCNC2)CCC13C (mixture of isomers) [I-co, (Z,E) 3-(3′-(R)-Pyrrolidinyloxyimino)-7-(spirocyclopropane)androstane-17-one hydrochloride] | 0.024 | – | –
CC12CCC3C(C(NC=O)CC4CC(=NOC5CCNC5)CCC43C)C1CCC2=O (mixture of isomers) [I-cp, (E,Z) 3-[3′-(R)-Pyrrolidinyl]oxyimino-7α-formamidoandrostane-17-one hydrochloride] | – | 4.6 | –
CN1CCC(ON=C2CCC3(C)C(C2)C(CO)C(=O)C2C4CCC(=O)C4(C)CCC23)C1 (mixture of isomers) [I-ct, (E,Z) 3-[3′-(R)-(1-Methyl)pyrrolidinyl]oxyimino-6α-hydroxymethylandrostane-7,17-dione fumarate] | – | 0.27 | –
CC12CCC3C(CC(=O)C4CC(OC(=O)C5CCNC5)CCC43C)C1CCC2=O (mixture of isomers) [I-cy, 3β-(3(R,S)-Pirrolidinylcarbonyloxy)androstane-6,17-dione fumarate] | 4.2 | – | –
C[C@]12CC[C@@H](SC3CCNC3)CC1C(=O)C[C@@H]1[C@@H]2CC[C@]2(C)C(=O)CC[C@@H]12 (mixture of isomers) [I-dc, 3α-[3-(RS)-Pyrrolidinylthio]androstane-6,17-dione fumarate] | – | – | IC50 [1, 2]: 95 µM
COCC1CC2CC(=NOC3CCNC3)CCC2(C)C2CCC3(C)C(=O)CCC3C12 (mixture of isomers) [I-dm, (E,Z) 3-[3-(R)-Pyrrolidinyl]oxyimino-7α-methoxymethylandrostane-17-one hydrochloride] | – | 8.1 | –
COC1CC2CC(=NOC3CCNC3)CCC2(C)C2CCC3(C)C(=O)CCC3C12 (mixture of isomers) [I-dn, (E,Z) 3-[3-(R)-Pyrrolidinyl]oxyimino-7α-methoxyandrostane-17-one fumarate] | – | 5.9 | –
CC12CCC3C(CC(O)C4CC(=NOC5CCNC5)CCC43C)C1CCC2O (mixture of isomers) [I-do, (E,Z) 3-[3-(R)-Pyrrolidinyl]oxyiminoandrostane-6α,17β-diol hydrochloride] | 0.49 | – | –
C=C1CC2C3CCC(=O)C3(C)CCC2C2(C)CCC(=NOC3CCNC3)CC12O (racemic) [I-bk, (E,Z) 3-[3′-(S)-Pyrrolidinyl]oxyimino-5α-hydroxy-6-methylene-androstane-17-one fumarate] | 0.48 | – | –
CC12CCC3C(CC(=O)C4CC(=NOC5CCNC5)CCC43C)C1CCC2=O (single isomer, unassigned) [I-ad, hydrochloride] | 0.83 | – | –
CC12CCC3C(CC(=O)C4CC(=NOC5CCNC5)CCC43C)C1CCC2=O (single isomer, unassigned) [I-ag, hydrochloride] | 0.11 | – | –
CN1CCC(ON=C2CCC3(C)C(C2)C(=O)CC2C4CCC(=O)C4(C)CCC23)C1 (single isomer, unassigned) [I-ak, hydrochloride] | 41 | – | –
CN1CCC(ON=C2CCC3(C)C(C2)C(=O)CC2C4CCC(=O)C4(C)CCC23)C1 (single isomer, unassigned) [I-al] | 1.3 | – | –
CC12CCC3C(CC(O)C4CC(=NOC5CCNC5)CCC43C)C1CCC2=O (single isomer, unassigned) [I-ao, hydrochloride] | 2.3 | – | –
C[C@H]1O[C@@H](O[C@H]2[C@@H](O)C[C@H](O[C@H]3[C@@H](O)C[C@H](O[C@H]4CC[C@@]5(C)[C@H](CC[C@@H]6[C@@H]5C[C@@H](O)[C@]5(C)[C@@H](C7=CC(=O)OC7)CC[C@]65O)C4)O[C@@H]3C)O[C@@H]2C)C[C@H](O)[C@@H]1O [digoxin, reference compound] | – | – | Emax (anesthetized guinea-pig; [4]): 158%; ED80 (anesthetized guinea-pig; [4]): 0.29 µmol/kg; ED (max) (anesthetized guinea-pig; [4]): 0.65 µmol/kg; % decrease from Emax after 20 min from the end of the infusion (anesthetized guinea-pig; anesthetized guinea-pig): 100%; Maximum dose infused (anesthetized guinea-pig; [5]): 1.16
